According to US20130046171A1, “DEVICE AND METHOD FOR ACCESSING AND TREATING DUCTS OF MAMMARY GLANDS” (priority 2008, published 2013):

Assays:
[1] = test system: NMU-induced tumorigenesis in mammary glands; test: Prophylaxis of NMU-induced mammary tumorigenesis by intraductal injection; type: in vivo, Sprague Dawley rats; details: rats given NMU 50 mg/kg i.v. after treatment, monitored 8 months
Description: The mammary glands (6 on each side) of six virgin 50 day old Sprague Dawley rats were injected with AdHS-tk on the left side and trypan blue on the right side or left untreated. One rat remained completely untreated with the virus or GCV and served as a positive control for NMU-induced tumorigenesis. On the day of surgery, rats were given an intramuscular injection of 5 μg estradiol valerate and were anesthetized with an isofluorane/O2 mixture. The nipples were cannulated with a 33 gauge needle. Twenty μl of AdHS-tk diluted in trypan blue carrier (1 mM MgCl2, 20 μg/ml polybrene in 10% glycerol, 0.4% trypan blue in saline) at a concentration of 5×10^7 particles/μl were injected into the duct. Carrier control mammary glands received 20 μl of trypan blue carrier alone. An animal was considered treated when at least three glands were successfully injected with trypan blue and another three glands were successfully injected with AdHS-tk. The remaining glands were left untreated. Twelve hrs later, the rats were injected with 125 mg/kg body weight GCV twice daily for three days. […] Five to seven days after GCV treatment, the rats were given an intravenous injection of NMU dissolved in 0.05% acetic acid (Ash Stevens, CO; 50 mg NMU/kg body weight) and were subsequently monitored for general health and the appearance of tumors at weekly intervals for 8 months.

[2] = test system: ductal carcinoma in situ, MNU-induced tumor formation; test: MNU-induced tumor formation rat model, teat infusion of anticancer agents; type: in vivo, Sprague Dawley rats; details: for rats with no visible masses or mammary lesions at necropsy: necropsy Day 180±2; for incidence of tumor mass formation: within 6 months of MNU-injection
Description: The objective of this study was to evaluate the efficacy of five test articles (four marketed anticancer agents), administered directly into the mammary gland ducts via teat infusion, for therapy and prevention of ductal carcinoma in situ in an N-Nitroso-N-Methylurea (MNU)-induced tumor formation rat model. Based upon previous animal studies, candidates were selected for more rigorous evaluation at B Braun Biological Test Center (BTC) in Irvine, Calif. This facility was chosen to continue the preclinical work, started by Dr. Sukumar at JHU in order to support studies with a larger number of animals, in compliance with Good Laboratory Practices.
The agents were tested in 120 female Sprague Dawley rats (n=20 per treatment). On Day 1, each rat was injected intraperitoneally with MNU to induce tumor formation. […] Rats were weighed prior to MNU injection, prior to intra-ductal infusion, and once weekly throughout the study.
Rats were observed twice daily for mortality/morbidity and 1-3 times weekly for general appearance, stool appearance, signs of toxicity, and palpable mass formation until death or euthanasia. […] At necropsy, organs and tissues were grossly observed, and the entire bilateral mammary gland system, visible masses, and abnormal tissues were collected and retained in formalin.

[3] = Dose escalation study of intraductal cytotoxic drugs in women prior to mastectomy, safety; type: in vivo; details: 300 mg dose, five subjects per group
Description: (§1) The study was performed in Cancer Hospital, Chinese Academy of Medical Sciences, Beijing, China where the standard of care includes a long preoperative hospital stay prior to mastectomy. Two drugs, pegylated liposomal doxorubicin (PLD) and carboplatin (C) were administered at 3 dose levels (PLD: 10, 20, 50 mg and carboplatin 60, 120, 300 mg) with the highest dose approximating the clinical intravenous dose. There were five subjects in each group with 15 subjects treated with each drug once. After informed consent, under local anesthesia subjects underwent cannulation of 5-8 ducts with intraductal instillation of the drug. Venous blood samples were obtained for pharmacokinetic analysis. The total dosage was divided by the number of cannulated ducts to yield a dose per duct. The breast was removed surgically as planned 2-5 days post treatment and the treated ducts were marked to enable identification on pathological evaluation. Intraductal administration was generally well-tolerated with mild, transient breast discomfort upon administration associated with the rate of infusion. Clinically significant laboratory adverse events were limited to decreases in hemoglobin following mastectomy, consistent with blood loss. […] In the carboplatin arm, three women at the 300 mg dose experienced mild nausea and vomiting.

[4] = Pharmacokinetic analysis of venous blood after intraductal administration; type: in vivo, women; details: intraductal carboplatin
Description: as §1

[5] = test system: mammary tumors; details: NMU administered at 55 days of age; cited from earlier work

Nc1nc(O)c2ncn(COC(CO)CO)c2n1 [No injection; Ganciclovir, Ganciclovir]
% of Glands with Tumor [1]: 25.0%
No. of Tumors [1]: 5

N.N.O=C([O-])C1(C(=O)[O-])CCC1.[Pt+2] [carboplatin]
rats with no visible masses or mammary lesions at necropsy ([2]; 0.42 mg/teat): 5 of 20
incidence of palpable masses during the course of the study ([2]; 0.75 mg/teat): lowest and least rapid
number of rats with masses at final observations prior to death or euthanasia ([2]; 0.75 mg/teat intraductal on Day 15): 11 of 20
rats with no visible masses or mammary lesions at necropsy ([2]; 0.75 mg/teat): 7 of 19
incidence of tumor mass formation ([2]; 0.75 mg/teat): lowest incidence of tumor mass formation
mild nausea and vomiting [3]: three
plasma ultrafiltrate AUC (area under the curve) [4]: consistent with the Calvert Formula using estimated GFR
peak time (tmax) ([4]; systemic circulation): ~30 min

CC(=O)O[C@H]1C(=O)[C@@]2(C)[C@H]([C@H](OC(=O)c3ccccc3)[C@]3(O)C[C@H](OC(=O)[C@H](O)[C@@H](NC(=O)c4ccccc4)c4ccccc4)C(C)=C1C3(C)C)[C@]1(OC(C)=O)CO[C@@H]1C[C@@H]2O [Taxol®, paclitaxel]
incidence of palpable masses during the course of the study ([2]; 0.15 mg/teat): highest and most rapid
number of rats with masses at final observations prior to death or euthanasia ([2]; 0.15 mg/teat intraductal on Day 15): 20 of 20
rats with visible masses at necropsy ([2]; 0.15 mg/teat, necropsied 4 months post-MNU injection, 20 rats): 20 rats
incidence of tumor mass formation ([2]; 0.15 mg/teat): highest incidence of mass formation

CN(N=O)C(N)=O [NMU, N-Nitroso-N-Methylurea]
female rats that develop mammary tumors [5]: 90-100%
